Results as given in PubChem BioAssay (NCI).
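All cell lines were grown in 96-well plates and treated with compound for 48 hours. TGI denotes the concentration required for complete inhibition of growth.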

How the values were obtained:
Assay in all cases: inhibition of tumour cell growth, NCI panel, 48 h
786-0 renal = tested on: 786-0 renal
A498 renal = tested on: A498 renal
A549 NSCLC = tested on: A549 NSCLC
ACHN renal = tested on: ACHN renal
CAKI-1 renal = tested on: CAKI-1 renal
CCRF-CEM leukemia = tested on: CCRF-CEM leukemia
COLO 205 colon = tested on: COLO 205 colon
DU-145 prostate = tested on: DU-145 prostate
EKVX NSCLC = tested on: EKVX NSCLC
HCT-116 colon = tested on: HCT-116 colon
HCT-15 colon = tested on: HCT-15 colon
HL-60(TB) leukemia = tested on: HL-60(TB) leukemia
HOP-62 NSCLC = tested on: HOP-62 NSCLC
HOP-92 NSCLC = tested on: HOP-92 NSCLC
HS 578T breast = tested on: HS 578T breast
HT29 colon = tested on: HT29 colon
IGROV1 ovarian = tested on: IGROV1 ovarian
K-562 leukemia = tested on: K-562 leukemia
KM12 colon = tested on: KM12 colon
LOX IMVI melanoma = tested on: LOX IMVI melanoma
M14 melanoma = tested on: M14 melanoma
MALME-3M melanoma = tested on: MALME-3M melanoma
MCF7 breast = tested on: MCF7 breast
MDA-MB-231 breast = tested on: MDA-MB-231 breast
MDA-MB-435 = tested on: MDA-MB-435
MDA-N = tested on: MDA-N
MOLT-4 leukemia = tested on: MOLT-4 leukemia
NCI-H226 lung = tested on: NCI-H226 lung
NCI-H23 lung = tested on: NCI-H23 lung
NCI-H460 lung = tested on: NCI-H460 lung
NCI-H522 lung = tested on: NCI-H522 lung
NCI/ADR-RES ovarian = tested on: NCI/ADR-RES ovarian
OVCAR-3 ovarian = tested on: OVCAR-3 ovarian
OVCAR-4 ovarian = tested on: OVCAR-4 ovarian
OVCAR-5 ovarian = tested on: OVCAR-5 ovarian
OVCAR-8 ovarian = tested on: OVCAR-8 ovarian
PC-3 prostate = tested on: PC-3 prostate
RPMI-8226 leukemia = tested on: RPMI-8226 leukemia
SF-268 CNS = tested on: SF-268 CNS
SF-295 CNS = tested on: SF-295 CNS
SF-539 CNS = tested on: SF-539 CNS
SK-MEL-2 melanoma = tested on: SK-MEL-2 melanoma
SK-MEL-28 melanoma = tested on: SK-MEL-28 melanoma
SK-MEL-5 melanoma = tested on: SK-MEL-5 melanoma
SK-OV-3 ovarian = tested on: SK-OV-3 ovarian
SN12C renal = tested on: SN12C renal
SNB-19 CNS = tested on: SNB-19 CNS
SNB-75 CNS = tested on: SNB-75 CNS
SR leukemia = tested on: SR leukemia
SW-620 colon = tested on: SW-620 colon
T-47D breast = tested on: T-47D breast
TK-10 renal = tested on: TK-10 renal
U251 CNS = tested on: U251 CNS
UACC-257 melanoma = tested on: UACC-257 melanoma
UACC-62 melanoma = tested on: UACC-62 melanoma
UO-31 renal = tested on: UO-31 renal
RXF 393 renal = tested on: RXF 393 renal

## COC(=O)C1CCC(=O)N1CN(C(C)=O)c1ccccc1 (stereo not given)
786-0 renal
  TGI: > 100 µM
A498 renal
  TGI: > 100 µM
A549 NSCLC
  TGI: > 100 µM
ACHN renal
  TGI: > 100 µM
CAKI-1 renal
  TGI: > 100 µM
CCRF-CEM leukemia
  TGI: > 100 µM
COLO 205 colon
  TGI: > 100 µM
DU-145 prostate
  TGI: > 100 µM
EKVX NSCLC
  TGI: > 100 µM
HCT-116 colon
  TGI: > 100 µM
HCT-15 colon
  TGI: > 100 µM
HL-60(TB) leukemia
  TGI: > 100 µM
HOP-62 NSCLC
  TGI: > 100 µM
HOP-92 NSCLC
  TGI: > 100 µM
HS 578T breast
  TGI: > 100 µM
HT29 colon
  TGI: > 100 µM
IGROV1 ovarian
  TGI: > 100 µM
K-562 leukemia
  TGI: > 100 µM
KM12 colon
  TGI: > 100 µM
LOX IMVI melanoma
  TGI: > 100 µM
M14 melanoma
  TGI: > 100 µM
MALME-3M melanoma
  TGI: > 100 µM
MCF7 breast
  TGI: > 100 µM
MDA-MB-231 breast
  TGI: > 100 µM
MDA-MB-435
  TGI: > 100 µM
MDA-N
  TGI: > 100 µM
MOLT-4 leukemia
  TGI: > 100 µM
NCI-H226 lung
  TGI: > 100 µM
NCI-H23 lung
  TGI: > 100 µM
NCI-H460 lung
  TGI: > 100 µM
NCI-H522 lung
  TGI: > 100 µM
NCI/ADR-RES ovarian
  TGI: > 100 µM
OVCAR-3 ovarian
  TGI: > 100 µM
OVCAR-4 ovarian
  TGI: > 100 µM
OVCAR-5 ovarian
  TGI: > 100 µM
OVCAR-8 ovarian
  TGI: > 100 µM
PC-3 prostate
  TGI: > 100 µM
RPMI-8226 leukemia
  TGI: > 100 µM
SF-268 CNS
  TGI: > 100 µM
SF-295 CNS
  TGI: > 100 µM
SF-539 CNS
  TGI: > 100 µM
SK-MEL-2 melanoma
  TGI: > 100 µM
SK-MEL-28 melanoma
  TGI: > 100 µM
SK-MEL-5 melanoma
  TGI: > 100 µM
SK-OV-3 ovarian
  TGI: > 100 µM
SN12C renal
  TGI: > 100 µM
SNB-19 CNS
  TGI: > 100 µM
SNB-75 CNS
  TGI: > 100 µM
SR leukemia
  TGI: > 100 µM
SW-620 colon
  TGI: > 100 µM
T-47D breast
  TGI: > 100 µM
TK-10 renal
  TGI: > 100 µM
U251 CNS
  TGI: > 100 µM
UACC-257 melanoma
  TGI: > 100 µM
UACC-62 melanoma
  TGI: > 100 µM
UO-31 renal
  TGI: > 100 µM

## O=c1oc2ccccc2c2c(=O)c3ccc(OC/C(=N/O)c4ccc(Cl)cc4)cc3oc12
786-0 renal
  TGI: 24.2 µM
A498 renal
  TGI: 15.6 µM
A549 NSCLC
  TGI: 32 µM
ACHN renal
  TGI: 19.2 µM
CAKI-1 renal
  TGI: 24 µM
CCRF-CEM leukemia
  TGI: 60.8 µM
COLO 205 colon
  TGI: 29.1 µM
DU-145 prostate
  TGI: 36.1 µM
HCT-116 colon
  TGI: 24 µM
HCT-15 colon
  TGI: 24.5 µM
HL-60(TB) leukemia
  TGI: 28.4 µM
HOP-62 NSCLC
  TGI: 31.5 µM
HOP-92 NSCLC
  TGI: 25.1 µM
HS 578T breast
  TGI: 42.1 µM
IGROV1 ovarian
  TGI: > 100 µM
K-562 leukemia
  TGI: 12.1 µM
KM12 colon
  TGI: 14 µM
LOX IMVI melanoma
  TGI: 31.9 µM
M14 melanoma
  TGI: 34 µM
MCF7 breast
  TGI: 49.6 µM
MDA-MB-231 breast
  TGI: 43.2 µM
MDA-MB-435
  TGI: 7.89 µM
MDA-N
  TGI: 10.9 µM
MOLT-4 leukemia
  TGI: 8.79 µM
NCI-H226 lung
  TGI: 36.2 µM
NCI-H23 lung
  TGI: 45.1 µM
NCI-H460 lung
  TGI: 33 µM
NCI/ADR-RES ovarian
  TGI: 31.4 µM
OVCAR-3 ovarian
  TGI: 10.9 µM
OVCAR-5 ovarian
  TGI: 37 µM
OVCAR-8 ovarian
  TGI: 65.1 µM
PC-3 prostate
  TGI: 24.5 µM
RPMI-8226 leukemia
  TGI: 33.1 µM
RXF 393 renal
  TGI: 8.06 µM
SF-268 CNS
  TGI: 41.8 µM
SF-295 CNS
  TGI: 7.1 µM
SF-539 CNS
  TGI: 23.8 µM
SK-MEL-2 melanoma
  TGI: 24.1 µM
SK-MEL-5 melanoma
  TGI: 18.7 µM
SK-OV-3 ovarian
  TGI: 24.3 µM
SN12C renal
  TGI: 51.2 µM
SNB-19 CNS
  TGI: 33.1 µM
SR leukemia
  TGI: 8.27 µM
SW-620 colon
  TGI: 37 µM
T-47D breast
  TGI: 88.4 µM
U251 CNS
  TGI: 23.3 µM
UACC-257 melanoma
  TGI: > 100 µM
UACC-62 melanoma
  TGI: 24.4 µM
UO-31 renal
  TGI: 30.8 µM
